Assay results taken from patent US20210238176A1, “PESTICIDALLY-ACTIVE BICYCLIC HETEROAROMATIC COMPOUNDS” (SYNGENTA CROP PROTECTION AG, priority 2018, published 2021).

Legend:
Type in all cases: in vivo
[1] = tested on: Myzus persicae (Green Peach Aphid); assay: Myzus persicae (green peach aphid) feeding/contact activity, sunflower leaf discs; details: foliar, 144 h, application rate 200 ppm, aphid population of mixed ages, 6 days after infestation
Protocol: Myzus persicae (Green Peach Aphid): Feeding/Contact Activity
Sunflower leaf discs were placed onto agar in a 24-well microtiter plate and sprayed with aqueous test solutions prepared from 10,000 ppm DMSO stock solutions. After drying, the leaf discs were infested with an aphid population of mixed ages. The samples were assessed for mortality 6 days after infestation.

[2] = tested on: Myzus persicae (Green Peach Aphid); assay: Myzus persicae systemic activity, pea seedling roots in test solution; details: 144 h, test rate 24 ppm, systemic via pea seedling roots, 6 days
Protocol: Myzus persicae (Green Peach Aphid). Systemic Activity
Roots of pea seedlings infested with an aphid population of mixed ages were placed directly into aqueous test solutions prepared from 10,000 ppm DMSO stock solutions. The samples were assessed for mortality 6 days after placing seedlings into test solutions.

[3] = tested on: Myzus persicae (Green Peach Aphid); assay: Myzus persicae intrinsic activity, sucrose solution under Parafilm; details: 120 h, test rate 12 ppm, 5 days after infestation
Source text: Myzus persicae (Green Peach Aphid). Intrinsic Activity
Test compounds prepared from 10,000 ppm DMSO stock solutions were applied by pipette into 24-well microtiter plates and mixed with sucrose solution. The plates were closed with a stretched Parafilm. A plastic stencil with 24 holes was placed onto the plate and infested pea seedlings were placed directly on the Parafilm. The infested plate was closed with a gel blotting paper and another plastic stencil and then turned upside down. The samples were assessed for mortality 5 days after infestation.

[4] = tested on: neonicotinoid-resistant Myzus persicae; assay: Myzus persicae (neonicotinoid-resistant) mixed population, contact/feeding, pepper plants; details: 120 h, neonicotinoid-resistant strain on pepper plants, 5 days after treatment, read-out: control (mortality)
Protocol: Myzus persicae (Neonicotinoid-Resistant, Green Peach Aphid), Mixed Population, Contact/Feeding.
Pepper plants were infested with mixed aged neonicotinoid-resistant aphid population and were treated 1 day after infestation with diluted test solutions in a spray chamber. 5 days after treatment, samples were assessed for mortality.

[5] = tested on: Bemisia tabaci (Cotton White Fly); assay: Bemisia tabaci (cotton white fly) feeding/contact activity, cotton leaf discs; details: foliar, 144 h, application rate 200 ppm, adult white flies, 6 days after incubation
Protocol: Bemisia tabaci (Cotton White Fly): Feeding/Contact Activity
Cotton leaf discs were placed on agar in 24-well microtiter plates and sprayed with aqueous test solutions prepared from 10,000 ppm DMSO stock solutions. After drying the leaf discs were infested with adult white flies. The samples were checked for mortality 6 days after incubation.

[6] = tested on: Nilaparvata lugens (Brown Plant Hopper, metabolic neonicotinoid-resistant); assay: Nilaparvata lugens (metabolic neonicotinoid-resistant) larvicide, feeding/contact, rice plants; details: 168 h, N3 nymphs, neonicotinoid-resistant strain, 7 days after treatment, read-out: control (mortality and growth regulation)
Protocol: Nilaparvata lugens (Brown Plant Hopper—Metabolic Neonicotinoid-Resistant), Larvicide, Feeding/Contact
Rice plants were treated with the diluted test solutions in a spray chamber. After drying, the plants were infested with ˜20 N3 nymphs. 7 days after the treatment, samples were assessed for mortality and growth regulation.

Cn1ccc(-n2c3cccn(Cc4ccc(Cl)nc4)c-3nc2=O)n1 [Compound A2, 4-[(6-chloro-3-pyridyl)methyl]-1-(1-methylpyrazol-3-yl)imidazo[4,5-b]pyridin-2-one]
≥ 80%: mortality at 200 ppm [1] | mortality at 24 ppm [2] | mortality at 12 ppm [3] | mortality at 200 ppm [4]

O=c1nc2n(Cc3ccc(Cl)nc3)cccc-2n1-c1cnn(CC(F)(F)F)c1 [Compound A85, 4-[(6-chloro-3-pyridyl)methyl]-1-[1-(2,2,2-trifluoroethyl)pyrazol-4-yl]imidazo[4,5-b]pyridin-2-one]
≥ 80%: mortality at 200 ppm [5] | mortality at 200 ppm [1] | mortality at 24 ppm [2] | mortality at 12 ppm [3]

Cc1nn(C(C)C)cc1-n1c2cccn(Cc3ccc(Cl)nc3)c-2nc1=O [Compound A102, 4-[(6-chloro-3-pyridyl)methyl]-1-(1-isopropyl-3-methyl-pyrazol-4-yl)imidazo[4,5-b]pyridin-2-one]
≥ 80%: mortality at 200 ppm [5] | mortality at 200 ppm [1] | mortality at 24 ppm [2] | mortality at 12 ppm [3]

CCn1cc(-n2c3cccn(Cc4ccc(Cl)nc4)c-3nc2=O)c(C)n1 [Compound A101, 4-[(6-chloro-3-pyridyl)methyl]-1-(1-ethyl-3-methyl-pyrazol-4-yl)imidazo[4,5-b]pyridin-2-one]
≥ 80%: mortality at 200 ppm [5] | mortality at 200 ppm [1] | mortality at 12 ppm [3]

CCc1nn(C)cc1-n1c2cccn(Cc3ccc(Cl)nc3)c-2nc1=O [Compound A100, 4-[(6-chloro-3-pyridyl)methyl]-1-(3-ethyl-1-methyl-pyrazol-4-yl)imidazo[4,5-b]pyridin-2-one]
≥ 80%: mortality at 200 ppm [5] | mortality at 200 ppm [1] | mortality at 24 ppm [2] | mortality at 12 ppm [3]

O=c1nc2n(Cc3ccc(Cl)nc3)cccc-2n1-c1cccnc1 [Compound A33, 4-[(6-chloro-3-pyridyl)methyl]-1-(3-pyridyl)imidazo[4,5-b]pyridin-2-one]
≥ 80%: mortality at 200 ppm [1] | mortality at 200 ppm [6] | mortality at 24 ppm [2] | mortality at 12 ppm [3]

Cn1cc(-n2c3cccn(Cc4ccc(Cl)nc4)c-3nc2=O)c(C(F)(F)F)n1 [Compound A96, 4-[(6-chloro-3-pyridyl)methyl]-1-[1-methyl-3-(trifluoromethyl)pyrazol-4-yl]imidazo[4,5-b]pyridin-2-one]
≥ 80%: mortality at 200 ppm [5] | mortality at 200 ppm [1] | mortality at 24 ppm [2] | mortality at 12 ppm [3]

O=c1nc2n(Cc3ccc(Cl)nc3)cccc-2n1-c1cnn(C(F)(F)F)c1 [Compound A80, 4-[(6-chloro-3-pyridyl)methyl]-1-[1-(trifluoromethyl)pyrazol-4-yl]imidazo[4,5-b]pyridin-2-one]
≥ 80%: mortality at 200 ppm [5] | mortality at 200 ppm [1] | mortality at 12 ppm [3] | mortality at 200 ppm [4]

O=c1nc2n(Cc3ccc(Cl)nc3)cccc-2n1-c1cccc(F)c1 [Compound A31, 4-[(6-chloro-3-pyridyl)methyl]-1-(3-fluorophenyl)imidazo[4,5-b]pyridin-2-one]
≥ 80%: mortality at 200 ppm [6] | mortality at 24 ppm [2] | mortality at 12 ppm [3]

Cn1cc(-n2c3cccn(Cc4ccc(Cl)nc4)c-3nc2=O)cn1 [Compound A3, 4-[(6-chloro-3-pyridyl)methyl]-1-(1-methylpyrazol-4-yl)imidazo[4,5-b]pyridin-2-one]
≥ 80%: mortality at 200 ppm [5] | mortality at 200 ppm [1] | mortality at 200 ppm [6] | mortality at 24 ppm [2] | mortality at 12 ppm [3] | mortality at 200 ppm [4]

O=c1nc2n(Cc3ccc(Cl)nc3)cccc-2n1-c1ccccc1 [Compound A34, 4-[(6-chloro-3-pyridyl)methyl]-1-phenyl-imidazo[4,5-b]pyridin-2-one]
≥ 80%: mortality at 200 ppm [1] | mortality at 200 ppm [6] | mortality at 24 ppm [2] | mortality at 12 ppm [3]

Cc1nn(C(F)F)cc1-n1c2cccn(Cc3ccc(Cl)nc3)c-2nc1=O [Compound A98, 4-[(6-chloro-3-pyridyl)methyl]-1-[1-(difluoromethyl)-3-methyl-pyrazol-4-yl]imidazo[4,5-b]pyridin-2-one]
≥ 80%: mortality at 200 ppm [1] | mortality at 24 ppm [2] | mortality at 12 ppm [3]

O=c1nc2n(Cc3ccc(Cl)nc3)cccc-2n1-c1ccc(F)cc1 [Compound A32, 4-[(6-chloro-3-pyridyl)methyl]-1-(4-fluorophenyl)imidazo[4,5-b]pyridin-2-one]
≥ 80%: mortality at 200 ppm [1] | mortality at 24 ppm [2] | mortality at 12 ppm [3]

CCCn1cc(-n2c3cccn(Cc4ccc(Cl)nc4)c-3nc2=O)cn1 [Compound A83, 4-[(6-chloro-3-pyridyl)methyl]-1-(1-propylpyrazol-4-yl)imidazo[4,5-b]pyridin-2-one]
≥ 80%: mortality at 200 ppm [5] | mortality at 200 ppm [1] | mortality at 24 ppm [2] | mortality at 12 ppm [3]

O=c1nc2n(Cc3ccc(Cl)nc3)cccc-2n1-c1ccc(OC(F)(F)F)cc1 [Compound A39, 4-[(6-chloro-3-pyridyl)methyl]-1-[4-(trifluoromethoxy)phenyl]imidazo[4,5-b]pyridin-2-one]
≥ 80%: mortality at 200 ppm [5] | mortality at 200 ppm [1] | mortality at 12 ppm [3]

Cn1cc(-n2c3cccn(Cc4ccc(Cl)nc4)c-3nc2=O)c(C(F)F)n1 [Compound A95, 4-[(6-chloro-3-pyridyl)methyl]-1-[3-(difluoromethyl)-1-methyl-pyrazol-4-yl]imidazo[4,5-b]pyridin-2-one]
≥ 80%: mortality at 200 ppm [1] | mortality at 24 ppm [2] | mortality at 12 ppm [3]

O=c1nc2n(Cc3ccc(Cl)nc3)cccc-2n1-c1ccoc1 [Compound A70, 4-[(6-chloro-3-pyridyl)methyl]-1-(3-furyl)imidazo[4,5-b]pyridin-2-one]
≥ 80%: mortality at 200 ppm [5] | mortality at 12 ppm [3]

O=c1nc2n(Cc3ccc(Cl)nc3)cccc-2n1-c1ccc(C(F)(F)F)cc1 [Compound A13, 4-[(6-chloro-3-pyridyl)methyl]-1-[4-(trifluoromethyl)phenyl]imidazo[4,5-b]pyridin-2-one]
≥ 80%: mortality at 200 ppm [5] | mortality at 200 ppm [1] | mortality at 12 ppm [3]

Cc1c(-n2c3cccn(Cc4ccc(Cl)nc4)c-3nc2=O)cnn1C(F)F [Compound A99, 4-[(6-chloro-3-pyridyl)methyl]-1-[1-(difluoromethyl)-5-methyl-pyrazol-4-yl]imidazo[4,5-b]pyridin-2-one]
≥ 80%: mortality at 200 ppm [1] | mortality at 24 ppm [2] | mortality at 12 ppm [3]

O=c1nc2n(Cc3ccc(Cl)nc3)cccc-2n1-c1cncs1 [Compound A66, 4-[(6-chloro-3-pyridyl)methyl]-1-thiazol-5-yl-imidazo[4,5-b]pyridin-2-one]
≥ 80%: mortality at 200 ppm [5] | mortality at 200 ppm [1] | mortality at 12 ppm [3]

O=c1nc2n(Cc3ccc(Cl)nc3)cccc-2n1-c1cncc(C(F)(F)F)c1 [Compound A25, 4-[(6-chloro-3-pyridyl)methyl]-1-[5-(trifluoromethyl)-3-pyridyl]imidazo[4,5-b]pyridin-2-one]
≥ 80%: mortality at 200 ppm [1] | mortality at 24 ppm [2] | mortality at 12 ppm [3]

CC(C)n1cc(-n2c3cccn(Cc4ccc(Cl)nc4)c-3nc2=O)cn1 [Compound A62, 4-[(6-chloro-3-pyridyl)methyl]-1-(1-isopropylpyrazol-4-yl)imidazo[4,5-b]pyridin-2-one]
≥ 80%: mortality at 200 ppm [5] | mortality at 200 ppm [1] | mortality at 12 ppm [3]

Cn1nc(C(F)(F)F)cc1-n1c2cccn(Cc3ccc(Cl)nc3)c-2nc1=O [Compound A88, 4-[(6-chloro-3-pyridyl)methyl]-1-[2-methyl-5-(trifluoromethyl)pyrazol-3-yl]imidazo[4,5-b]pyridin-2-one]
≥ 80%: mortality at 200 ppm [5] | mortality at 200 ppm [1] | mortality at 24 ppm [2] | mortality at 12 ppm [3]

Cn1ncc(-n2c3cccn(Cc4ccc(Cl)nc4)c-3nc2=O)c1C(F)F [Compound A97, 4-[(6-chloro-3-pyridyl)methyl]-1-[5-(difluoromethyl)-1-methyl-pyrazol-4-yl]imidazo[4,5-b]pyridin-2-one]
≥ 80%: mortality at 200 ppm [1] | mortality at 24 ppm [2] | mortality at 12 ppm [3]

CC(C)n1nccc1-n1c2cccn(Cc3ccc(Cl)nc3)c-2nc1=O [Compound A94, 4-[(6-chloro-3-pyridyl)methyl]-1-(2-isopropylpyrazol-3-yl)imidazo[4,5-b]pyridin-2-one]
≥ 80%: mortality at 200 ppm [5] | mortality at 200 ppm [1] | mortality at 24 ppm [2] | mortality at 12 ppm [3]
